These results are taken from ChEMBL document CHEMBL3272146, “Tetramethoxydibenzoquinolizinium salts. Preparation and antileukemic activity of some positional and structural isomers of coralyne” (1976).

Active and inactive are the calls of the source. The calls are words filed in the database; no cut-off is given here.

Assay [1] relates to P388. The assay is described as follows: In-vivo antileukemic activity against mouse P388 cells assessed as host survival at 25 mg/kg qd relative to control. It is filed as functional.
In assay [2] the test system is P388. The assay is described as follows: In-vivo antileukemic activity against mouse P388 cells assessed as host survival at 400 mg/kg qd relative to control. It is filed as functional.
The test system of assay [3] is P388. The assay is described as follows: In-vivo antileukemic activity against mouse P388 cells assessed as host survival at 200 mg/kg qd relative to control. The format is functional.
The test system of assay [4] is P388. The assay is described as follows: In-vivo antileukemic activity against mouse P388 cells assessed as host survival at 100 mg/kg qd. The format is functional, organism-based. More on the design: dose 100 mg/kg.
In assay [5] the test system is P388. The assay is described as follows: In-vivo antileukemic activity against mouse P388 cells assessed as host survival at 50 mg/kg qd. The format is functional, organism-based. More on the design: dose 50 mg/kg.
Assay [6] relates to P388. The assay is described as follows: In-vivo antileukemic activity against mouse P388 cells assessed as host survival at 25 mg/kg qd. It is filed as functional, organism-based. More on the design: dose 25 mg/kg.
Assay [7] deals with P388. In words: In-vivo antileukemic activity against mouse P388 cells assessed as host survival at 200 mg/kg qd. It is filed as functional, organism-based. More on the design: dose 200 mg/kg.
Assay [8] relates to P388. In words: In-vivo antileukemic activity against mouse P388 cells assessed as host survival at 100 mg/kg qd relative to control. The format is functional.
The subject of assay [9] is P388. The assay is described as follows: In-vivo antileukemic activity against mouse P388 cells assessed as host survival at 50 mg/kg qd relative to control. It is filed as functional.
Assay [10] deals with P388. The assay is described as follows: In-vivo antileukemic activity against mouse P388 cells assessed as host survival at 20 mg/kg qd relative to control. It is filed as functional.
For assay [11], the system named is P388. The assay is described as follows: In-vivo antileukemic activity against mouse P388 cells assessed as host survival at 10 mg/kg qd relative to control. The format is functional.
In assay [12] the test system is P388. In words: In-vivo antileukemic activity against mouse P388 cells assessed as host survival at 5 mg/kg qd relative to control. The format is functional.
For assay [13], the system named is P388. The assay is described as follows: In-vivo antileukemic activity against mouse P388 cells assessed as host survival at 120 mg/kg qd relative to control. The format is functional.
Assay [14] has as its system P388. The assay is described as follows: In-vivo antileukemic activity against mouse P388 cells assessed as host survival at 5 mg/kg qd. The format is functional, organism-based. The arrangement: dose 5 mg/kg.
Assay [15] relates to P388. The assay is described as follows: In-vivo antileukemic activity against mouse P388 cells assessed as host survival at 120 mg/kg qd. It is filed as functional, organism-based. The arrangement: dose 120 mg/kg.
The test system of assay [16] is P388. In words: In-vivo antileukemic activity against mouse P388 cells assessed as host survival at 80 mg/kg qd. The format is functional, organism-based. The arrangement: dose 80 mg/kg.
The test system of assay [17] is P388. The assay is described as follows: In-vivo antileukemic activity against mouse P388 cells assessed as host survival at 20 mg/kg qd. The format is functional, organism-based. The arrangement: dose 20 mg/kg.
Assay [18] deals with P388. In words: In-vivo antileukemic activity against mouse P388 cells assessed as host survival at 10 mg/kg qd. The format is functional, organism-based. The arrangement: dose 10 mg/kg.
Assay [19] deals with P388. In words: In-vivo antileukemic activity against mouse P388 cells assessed as host survival at 160 mg/kg qd. It is filed as functional, organism-based. The arrangement: dose 160 mg/kg.
Assay [20] deals with P388. The assay is described as follows: In-vivo antileukemic activity against mouse P388 cells assessed as host survival at 40 mg/kg qd. More on the design: dose 40 mg/kg. The format is functional, organism-based.
Assay [21] relates to P388. In words: In-vivo antileukemic activity against mouse P388 cells assessed as host survival at 160 mg/kg qd relative to control. The format is functional.
Assay [22] relates to P388. In words: In-vivo antileukemic activity against mouse P388 cells assessed as host survival at 80 mg/kg qd relative to control. It is filed as functional.
The subject of assay [23] is P388. The assay is described as follows: In-vivo antileukemic activity against mouse P388 cells assessed as host survival at 40 mg/kg qd relative to control. It is filed as functional.
Assay [24] concerns P388. The assay is described as follows: In-vivo antileukemic activity against mouse P388 cells assessed as host survival at 8 mg/kg qd relative to control. It is filed as functional.
In assay [25] the test system is P388. In words: In-vivo antileukemic activity against mouse P388 cells assessed as host survival at 64 mg/kg qd. It is filed as functional, organism-based. The arrangement: dose 64 mg/kg.
Assay [26] concerns P388. In words: In-vivo antileukemic activity against mouse P388 cells assessed as host survival at 128 mg/kg qd relative to control. It is filed as functional.
The test system of assay [27] is P388. The assay is described as follows: In-vivo antileukemic activity against mouse P388 cells assessed as host survival at 75 mg/kg qd relative to control. It is filed as functional.
For assay [28], the system named is P388. The assay is described as follows: In-vivo antileukemic activity against mouse P388 cells assessed as host survival at 64 mg/kg qd relative to control. It is filed as functional.
The test system of assay [29] is P388. In words: In-vivo antileukemic activity against mouse P388 cells assessed as host survival at 32 mg/kg qd relative to control. It is filed as functional.
For assay [30], the system named is P388. In words: In-vivo antileukemic activity against mouse P388 cells assessed as host survival at 168 mg/kg qd. It is filed as functional, organism-based. More on the design: dose 168 mg/kg.

In the case of `COc1cc2cc3c4cc(OC)c(OC)cc4cc(C)[n+]3cc2cc1OC.[Cl-]`, the T/C in the assay on P388 [1] is listed as 139; in the assay on P388 [2] it was 131; in the assay on P388 [3] it was 139; in the assay on P388 [8], 134; in the assay with P388 [9], 134. Moreover, the result in the assay with P388 [4], with P388 [5], with P388 [6] and with P388 [7] was Active.

For `CC(=O)OS(=O)(=O)[O-].COc1cc2cc3cc4cc(OC)c(OC)cc4c(C)[n+]3cc2cc1OC`, the T/C in the assay on P388 [10] was 180; in the assay on P388 [11], 145; in the assay on P388 [12] it was 140; in the assay with P388 [13] it was 150; with P388 [21], 200; with P388 [22], 180. Moreover, in the assay on P388 [23], the T/C was 150. In addition, the outcome in the assay on P388 [14], in the assay on P388 [15], in the assay with P388 [16], in the assay on P388 [17], in the assay with P388 [18] and in the assay with P388 [19] was Active. The result in the assay with P388 [20] was Active.

`CC(=O)OS(=O)(=O)[O-].COc1cc2cc3c4cc(OC)c(OC)cc4cc[n+]3c(C)c2cc1OC`: the T/C was 173 in the assay with P388 [10]; 159 in the assay on P388 [11]; 150 in the assay with P388 [24]; 157 with P388 [12]; 170 in the assay with P388 [21]; 167 with P388 [26]. The T/C in the assay with P388 [8] was 176; in the assay on P388 [22], 175; in the assay with P388 [27], 175; with P388 [28], 182; with P388 [9], 180; in the assay on P388 [23] it was 173. For the same compound, in the assay with P388 [29], the T/C stood at 175. Also, the outcome in the assay on P388 [4], in the assay with P388 [25], with P388 [5] and with P388 [14] was Active.

Regarding `CC(=O)OS(=O)(=O)[O-].COc1cc2cc[n+]3c(C)c4ccc(OC)c(OC)c4cc3c2cc1OC`, the T/C in the assay on P388 [10] was found to be 171; with P388 [11], 136; with P388 [12], 127; in the assay with P388 [23], 177. In addition, the outcome in the assay with P388 [14], in the assay on P388 [17] and in the assay on P388 [18] was Active. Besides, the outcome in the assay on P388 [30] was inactive.

With `CC(=O)OS(=O)(=O)[O-].COc1cc2c[n+](C)c3c4ccc(OC)c(OC)c4ccc3c2cc1OC`, the T/C in the assay with P388 [10] came out at 154; with P388 [11] it was 149; in the assay on P388 [13], 179; with P388 [1], 164; in the assay on P388 [8], 209; with P388 [22], 170. Also, the T/C with P388 [9] is on record as 174; in the assay on P388 [23], 153. Besides, the result in the assay with P388 [4], in the assay on P388 [5], with P388 [15], with P388 [16], in the assay on P388 [6] and in the assay with P388 [17] was Active. The result in the assay with P388 [18] was Active.
